The nature of data set [1]: Reduction of copper levels in swine after oral Cu loading. The class given is in vivo. Conditions: 15 mg/kg twice daily for three days. Here is the method:
Eight weanling pigs weighing 10-12 kg were randomly assigned to one of three groups, receiving no thpalanine (N=2), thpalanine via gavage (N=3) or thpalanine intravenously (N=3). All eight pigs underwent 21 consecutive days of oral Cu loading with 10 mg of Cu from copper sulfate per kg of body weight twice daily. Loading was determined by protocol in Mineral Tolerance of Domestic Animals. Pigs also received 10 mg/kg body weight of Cu in their diet. After 21 days dosing with copper sulfate was discontinued. Thpalanine was given to the two drug-treated groups beginning two days following the end of Cu loading. Each of the thpalanine treatment groups (oral and intravenous) received 15 mg thpalanine per kg body weight twice daily for three consecutive days. Four 24 hour urine collections were done to determine urinary Cu excretion beginning 24 hours prior to thpalanine treatment.
Following day 3 of treatment, the pigs were euthanized and a sample of liver/kidney were collected and stored at −10° F. until copper analyses. Statistical analysis was performed using ANOVA. Multiple pairwise comparisons were made using the Tukey test and statistical significance was set at P<0.05.

A short description of data set [2]: Stability of THPAL in bovine serum albumin (BSA) solution by 31P NMR. The class given is physicochemical. Here is the method:
50 mg of BSA (3.3%) was dissolved in 1.5 ml of water. 30 mg of THPAL (0.06 M) was added to this to obtain a clear solution. The measurements of stable (or unoxidized) forms of THPAL in BSA were performed using ^31P NMR spectroscopy. The ^31P NMR resonance of THPAL is very sensitive to alterations on the back bone structure. The temperature of the mixture of THPAL and BSA in water was maintained at 9-12° C.
There was no detectable change in the ^31P NMR resonance until 12-15 hours after mixing the THPAL and BSA. After 24 hours, about 20% THPAL was transferred to uncharacterized compound.

Data set [3] can be described thus: Attempted oxidation of THPAL with molecular oxygen. The class given is physicochemical. Conditions: aerated water, refluxed for several hours under air. Here is the method:
THPAL (0.5 g, […]) was dissolved in aerated water (25 ml).

Data set [4] in a line: Oxidation of THPAL using gaseous hydrogen peroxide. Conditions: aqueous solution exposed to hydrogen peroxide vapors; after two days. The class given is physicochemical.
The nature of data set [5]: Oxidation of THPAL by 35% aqueous H2O2. The class given is physicochemical. Here is the method:
Hydrogen peroxide (0.2 ml, 35%, […]) was added dropwise to a solution of THPAL (0.5 g, 0.014 mmol) in water at room temperature. The reaction mixture was stirred at room temperature for one hour. The solvent was then removed under reduced pressure. The crude product was washed with methanol (5×4 ml), and then characterized as pure O═P(CH2NHCH(CH3)—COOH)3 by NMR spectroscopy. ^31P{^1H} NMR (D2O): 37.07 (s); ^1H NMR (D2O): 1.60 (d, CH3, 9H), 3.96-3.89 (m. CH2 and CH, 9H); ^13C NMR (D2O): 42.9 (d, P—CH2, JC-P=70.05 Hz), 59.6 (d, NH—CH, ^2JC-P=8.25 Hz), 15.59 (s, CH3), 175.15 (s, COOH).

A short description of data set [6]: Oxygen radical absorbance capacity (ORAC hydro FL). Conditions: Fluorescein probe; Trolox calibration standard. An excerpt: (§1) The NORAC value of 18.8 μmolTE/g found for TBPAL (Table 1) is among the highest ever reported for antioxidant drugs.
Trolox, a water-soluble Vitamin E analog, was used as the calibration standard and the ORAC result is expressed as micromole Trolox equivalent (TE) per gram.

The nature of data set [7]: Hydroxyl radical absorbance capacity (HORAC). Conditions: Gallic Acid calibration standard.
Excerpt: as §1
^+Gallic Acid was used as the calibration standard and the HORAC result is expressed as mg Gallic Acid equivalent (GAE) per gram.

The nature of data set [8]: Nitricoxide radical absorbance capacity (NORAC).
Excerpt: as §1
^Trolox was used as the calibration standard and the NORAC result is expressed as μmole Trolox equivalent (TE) per gram.

The structures appear in SMILES notation.

Consider `CC(NCP(CNC(C)C(=O)O)CNC(C)C(=O)O)C(=O)O` (centres unmarked) [THPAL, 2-[({Bis-[(1-carboxy-ethylamino)-methyl]-phosphanyl}-methyl)-amino]-propionic acid], for which, in data set [1] (Cu-loaded weanling pigs, intravenous), the “copper levels in swine kidneys” value is on record as “significantly reduced”. The “adverse effects (clinical observations, rate of gain, gross necropsy)” value in data set [1] (pigs, oral or intravenous) is “no adverse effects”. Moreover, the “time with no detectable change in the 31P NMR resonance after mixing THPAL and BSA” value in data set [2] (3.3% BSA in water, 0.06 M THPAL, 9-12° C.) lay within 12 to 15 h. Also, in data set [2] (BSA solution, after 24 hours, 9-12° C.), the “THPAL transferred to uncharacterized compound” value is reported as “about 20%”. The “oxidation state of THPAL in BSA solution (31P NMR)” value in data set [2] (after 72 hours) was “remained unoxidized”. Further, the “oxidative stability of THPAL in BSA solution (31P NMR)” value in data set [2] (after five days) is recorded as “no oxidation”. Also, the “stability in BSA solutions” value in data set [2] (overall conclusion) is given as “stable”. In addition, the “oxidation or decomposition by 31P NMR” value in data set [3] is recorded as “did not show any oxidation or detectable decomposition”. Also, the “conversion to O═P(CH2NHCH(CH3)COOH)3” value in data set [4] is listed as “Complete conversion”. Moreover, the “oxidation of THPAL to the corresponding oxide by oxygen radicals generated by peroxide” value in data set [5] is given as “complete oxidation”. In data set [6], this compound registered an ORAChydroFL of 31 μmoleTE/g. Besides, the HORAC result in data set [7] is listed as “Not Detectable”. In data set [8], this compound returned an NORAC value of 18.8 μmolTE/g. In data set [8] (Trolox calibration standard), the NORAC was 18.81 μmoleTE/g.

These data come from US7611691B2, “Compounds for treatment of copper overload” (The Curators of the University of Missouri, priority 2002, dated 2009).
